Consider 37 molecules from patent publication US4454145A, “Nicotinates of alkanediols having hypolipidaemic activity and pharmaceutical compositions containing them” (Alfa Farmaceutici S.p.A., priority 1981, dated 1984).

What all share (type): in vivo, Male Wistar rats
The test system of assay [1] is hypertriglyceridemia caused by fructose. The assay is described as follows: Test A: decrease of triglycerides content in the serum of rats due to hypertriglyceridemia caused by fructose. The conditions noted are these: for change in vivo at 50 mg/kg: Rattus norvegicus, po, 72 h, read-out: ΔTGhematic (percent decrease of the hematic triglycerides); for change in vivo at 50 mg/kg / ΔTGhematic (percent decrease of the hematic triglycerides): 50 mg/Kg/os/die, three days, fructose diet; for ED50, Test diet of fructose: Table 3, oral. The source says:
(A) Determination of the decrease of triglycerides content in the serum of rats due to hypertriglyceridemia caused by fructose.
Male Wistar rats weighing 260±20 g, normally fed, subdivided in groups of 6 animals each, are used. The test lasts three days: in the first day the animals are normally fed but are kept without drinking water; in the second and third day they receive a 20% (w/v) water solution of fructose instead of water; moreover in the second day they are fed by means of a gastric probe with further 4 ml of 50% (w/v) aqueous solution of fructose. […] The animals are sacrificed undr ethereal anaesthesia 4 hours after the treatment of the third day and the blood is drawn by an intracardiacal injection.
The percent decrease of the hematic triglycerides due to the treatment with the compound to be tested is expressed as ΔTGhematic and is represented by the following formula: [formula] TG=triglycerides.

For assay [2], the system named is total cholesterol in rats fed with hypercholesterolemic diet. Briefly: Test B: variation of total cholesterol in rats fed with Tensho et al. hypercholesterolemic diet. The conditions noted are these: Table 3, oral. The source says: (B) Determination of the variation of total cholesterol in rats fed with Greenberg […] diet modified according to Tensho et al.
The rats are subdivided in 3 experimental groups:
(1) control group, normally fed;
(2) diet group, fed only with the Tensho diet;
(3) treated group, fed with the Tensho diet and treated with the compounds to be tested.
At the beginning of the eighth day the rats, fasted since the previous evenging, are sacrified under ethereal anaesthesia by means of an intracardiacal injection. […] The percent decrease of the hematic cholesterol is calculated by means of the following formula: [formula] Ch=cholesterol

The test system of assay [3] is hypertriglyceridemia caused by ethanol. The assay is described as follows: Test C: decrease of triglycerides content in the serum of rats based on hypertriglyceridemia caused by ethanol. The conditions noted are these: Table 3, oral, ethanol in drinking water. The source says:
(C) Determination of the decrease of triglycerides content in the serum of rats based on hypertriglyceridemia caused by ethanol. Male Wistar rats weighing 260±20 g, normally fed, are subdivided in experimental groups of 10 animals each: (1) control group, normally fed; (2) diet group, given drinking water containing 10% (v/v) of ethanol since the second day; (3) treated group, given drinking water containing 10% (v/v) of ethanol and treated with the compounds to be tested from the second day. At the beginning of the fourth day, after 18 hours of fast, the animals are sacrificed under ethereal anaesthesia by means of an intracardiacal injection. The dosage of the triglycerides is carried out on the serum using the enzymatic method described by […]. and […]. […] The percent decrease of the triglycerides has been calculated as above.

The structures appear in SMILES notation. Where two headings read alike, the source gives them in different places.

Take `CC(C)(CCCCC(C)(C)COC(=O)c1cccnc1)COC(=O)c1cccnc1` [Example 1, 2,2,7,7-Tetramethyl-1,8-octanediol dinicotinate]: the change in vivo at 50 mg/kg in assay [1] (Table 1, esters) is -60%.
Same read-out and setting: under `CC(C)(CCCCCC(C)(C)COC(=O)c1cccnc1)COC(=O)c1cccnc1` [Example 2, 2,2,8,8-Tetramethyl-1,9-nonanediol dinicotinate] stands -80%.
`CC(C)(CCCCCCC(C)(C)COC(=O)c1cccnc1)COC(=O)c1cccnc1` [Example 3, 2,2,9,9-Tetramethyl-1,10-decanediol dinicotinate]: the change in vivo at 50 mg/kg in assay [1] (Table 1, esters) was -99%. The “ED50, Test diet of fructose” value in assay [1] stood at 0.0034 mmole/Kg/os/die. Further, the “ED50, Test diet of Tensho” value in assay [2] is given as 0.0900 mmole/Kg/os/die. Also, in assay [3], the “ED50, Test diet of ethanol” value was determined as 0.0727 mmole/Kg/os/die.
Take `CC(C)(CCCCCCCC(C)(C)COC(=O)c1cccnc1)COC(=O)c1cccnc1` [Example 4, 2,2,10,10-Tetramethyl-1,11-undecanediol dinicotinate]: in assay [1] (Table 1, esters), the change in vivo at 50 mg/kg is -92.5%. For the same molecule, in assay [1], the “ED50, Test diet of fructose” value is reported as 0.0029 mmole/Kg/os/die. Besides, in assay [2], the “ED50, Test diet of Tensho” value was determined as 0.0891 mmole/Kg/os/die. Moreover, the “ED50, Test diet of ethanol” value in assay [3] was determined as 0.0718 mmole/Kg/os/die.
As for `CC(C)(CCCCCCCCC(C)(C)COC(=O)c1cccnc1)COC(=O)c1cccnc1` [Example 5, 2,2,11,11-Tetramethyl-1,12-dodecanediol dinicotinate], the change in vivo at 50 mg/kg in assay [1] (Table 1, esters) was -98%. For the same molecule, in assay [1], the “ED50, Test diet of fructose” value came to 0.0026 mmole/Kg/os/die. The “ED50, Test diet of Tensho” value in assay [2] was found to be 0.0880 mmole/Kg/os/die. In addition, in assay [3], the “ED50, Test diet of ethanol” value was 0.0707 mmole/Kg/os/die.
Consider `CCC(C)(CCCCCCC(C)(CC)C(=O)O)C(=O)O` (stereo not drawn) [Example 7, 2,9-Diethyl-2,9-dimethyl-1,10-decanedioic acid], for which the change in vivo at 50 mg/kg in assay [1] (Table 2, acids and alcohols) is -82.1%.
Same read-out and setting: under `CCC(C)(CO)CCCCCCC(C)(CC)CO` (stereo not drawn) [Example 8, 2,9-Diethyl-2,9-dimethyl-1,10-decanediol] stands -81.5%; under `CC(C)(CCCCCCCC(C)(C)C(=O)O)C(=O)O` [Example 13], -91.8%; under `CC(C)(CO)CCCCCCCC(C)(C)CO` [Example 14], -92%.
Consider `CCC(C)(CCCCCCCC(C)(CC)C(=O)O)C(=O)O` (stereo not drawn) [Example 15], for which, in assay [1] (Table 2, acids and alcohols), the change in vivo at 50 mg/kg is -97%.
Same read-out and setting: under `CCC(C)(CO)CCCCCCCC(C)(CC)CO` (stereo not drawn) [Example 16] stands -90%; under `CC(C)(CCCCCCCCC(C)(C)C(=O)O)C(=O)O` [Example 17], -97.5%; under `CC(C)(CO)CCCCCCCCC(C)(C)CO` [Example 18], -93.4%.
Same read-out and setting: under `CCC(C)(CCCCCCCCC(C)(CC)C(=O)O)C(=O)O` (stereo not drawn) [Example 19] stands -57.4%; under `CCC(C)(CO)CCCCCCCCC(C)(CC)CO` (stereo not drawn) [Example 20], -50.1%; under `CCCC(C)(CCCCCCCCC(C)(CCC)C(=O)O)C(=O)O` (stereo not drawn) [Example 21], -64.3%.
In the case of `CCCC(C)(CO)CCCCCCCCC(C)(CO)CCC` (stereo not drawn) [Example 22], the change in vivo at 50 mg/kg in assay [1] (Table 2, acids and alcohols) was -45.2%.
Same read-out and setting: the figure for `CCCCC(C)(CCCCCCCCC(C)(CCCC)C(=O)O)C(=O)O` (stereo not drawn) [Example 23] is -62.4%; for `CCCCC(C)(CO)CCCCCCCCC(C)(CO)CCCC` (stereo not drawn) [Example 24] it is -60.2%.
As to `O=C(O)c1cccnc1` [Nicotinic acid, reference compound], in assay [1], the “ED50, Test diet of fructose” value was found to be 0.4760 mmole/Kg/os/die. Besides, in assay [2], the “ED50, Test diet of Tensho” value stood at 0.3020 mmole/Kg/os/die. Also, the “ED50, Test diet of ethanol” value in assay [3] turned out to be 0.4800 mmole/Kg/os/die.
Turning to `CCC(C)(CCCCCCC(C)(CC)COC(=O)c1cccnc1)COC(=O)c1cccnc1` (stereo not drawn) [Table 1 No. 4, 2,9-diethyl-2,9-dimethyl-1,10-decanediol dinicotinate], the change in vivo at 50 mg/kg in assay [1] (Table 1, esters) was -87%.
The same measure, in the same setting: the figure for `CCCC(C)(CCCCCCC(C)(CCC)COC(=O)c1cccnc1)COC(=O)c1cccnc1` (stereo not drawn) [Table 1 No. 5, 2,9-dimethyl-2,9-di-n-propyl-1,10-decanediol dinicotinate] is -90%.
For the molecule `CCCCC(C)(CCCCCCC(C)(CCCC)COC(=O)c1cccnc1)COC(=O)c1cccnc1` (stereo not drawn) [Table 1 No. 6, 2,9-di-n-butyl-2,9-dimethyl-1,10-decanediol dinicotinate], the change in vivo at 50 mg/kg in assay [1] (Table 1, esters) was -85.6%.
With `CCC(C)(CCCCCCCC(C)(CC)COC(=O)c1cccnc1)COC(=O)c1cccnc1` (stereo not drawn) [Table 1 No. 8, 2,10-diethyl-2,10-dimethyl-1,11-undecanediol dinicotinate], the change in vivo at 50 mg/kg in assay [1] (Table 1, esters) is -98%.
In the case of `CCC(C)(CCCCCCCCC(C)(CC)COC(=O)c1cccnc1)COC(=O)c1cccnc1` (stereo not drawn) [Table 1 No. 10, 2,11-diethyl-2,11-dimethyl-1,12-dodecanediol dinicotinate], in assay [1] (Table 1, esters), the change in vivo at 50 mg/kg is -66%.
On the same count and under the same terms, the figure for `CCCC(C)(CCCCCCCCC(C)(CCC)COC(=O)c1cccnc1)COC(=O)c1cccnc1` (stereo not drawn) [Table 1 No. 11, 2,11-dimethyl-2,11-di-n-propyl-1,12-dodecanediol dinicotinate] is -65.8%; for `CCCCC(C)(CCCCCCCCC(C)(CCCC)COC(=O)c1cccnc1)COC(=O)c1cccnc1` (stereo not drawn) [Table 1 No. 12, 2,11-di-n-butyl-2,11-dimethyl-1,12-dodecanediol dinicotinate] it is -59.1%.
Consider `CC(C)(CCCCC(C)(C)C(=O)O)C(=O)O` [Table 2 No. 1], for which the “ΔTGhematic (percent decrease of the hematic triglycerides)” value in assay [1] (Table 2, acids and alcohols) was “inactive”.
As for `CC(C)(CO)CCCCC(C)(C)CO` [Table 2 No. 2, 2,2,7,7-tetramethyl-1,8-octanediol], in assay [1] (Table 2, acids and alcohols), the “ΔTGhematic (percent decrease of the hematic triglycerides)” value is “inactive”.
As for `CC(C)(CCCCCC(C)(C)C(=O)O)C(=O)O` [Table 2 No. 3], the “ΔTGhematic (percent decrease of the hematic triglycerides)” value in assay [1] (Table 2, acids and alcohols) was “inactive”.
Still for that read-out and setting: under `CC(C)(CO)CCCCCC(C)(C)CO` [Table 2 No. 4, 2,2,8,8-tetramethyl-1,9-nonanediol] stands “inactive”.
Consider `CC(C)(CCCCCCC(C)(C)C(=O)O)C(=O)O` [Table 2 No. 5], for which the change in vivo at 50 mg/kg in assay [1] (Table 2, acids and alcohols) was -91.8%.
Regarding `CC(C)(CO)CCCCCCC(C)(C)CO` [Table 2 No. 6, 2,2,9,9-tetramethyl-1,10-decanediol], in assay [1] (Table 2, acids and alcohols), the change in vivo at 50 mg/kg was -94%.
Still for that read-out and setting: the figure for `CCCC(C)(CCCCCCC(C)(CCC)C(=O)O)C(=O)O` (stereo not drawn) [Table 2 No. 9] is -89.5%.
On the same count and under the same terms, the figure for `CCCC(C)(CO)CCCCCCC(C)(CO)CCC` (stereo not drawn) [Table 2 No. 10, 2,9-dimethyl-2,9-di-n-propyl-1,10-decanediol] is -88.3%.
With `CCCCC(C)(CCCCCCC(C)(CCCC)C(=O)O)C(=O)O` (stereo not drawn) [Table 2 No. 11], in assay [1] (Table 2, acids and alcohols), the change in vivo at 50 mg/kg was -65.4%.
For the molecule `CCCCC(C)(CO)CCCCCCC(C)(CO)CCCC` (stereo not drawn) [Table 2 No. 12, 2,9-di-n-butyl-2,9-dimethyl-1,10-decanediol], the change in vivo at 50 mg/kg in assay [1] (Table 2, acids and alcohols) is -58.7%.
